In patent US11578084B2, “Condensed ring compounds having dopamine D3 receptor antagonistic effect” (Shionogi & Co., Ltd., priority 2018, dated 2023) one finds Ki data, which are given here for 42 molecules.

In test [1] the target is human recombinant dopamine D2 receptor (Homo sapiens (Human), UniProt P14416). In words: Test of binding inhibition for dopamine D2 receptor ([3H]-Methylspiperone SPA). The conditions noted are these: Jump-In HEK cell membranes, 1.2 nM [3H]-Methylspiperone, 120 min at 25° C.; read-out: hD2_Ki. The procedure: (§1) (Experimental Conditions)
human recombinant dopamine D2 receptor, sequence (P14416 whole entry): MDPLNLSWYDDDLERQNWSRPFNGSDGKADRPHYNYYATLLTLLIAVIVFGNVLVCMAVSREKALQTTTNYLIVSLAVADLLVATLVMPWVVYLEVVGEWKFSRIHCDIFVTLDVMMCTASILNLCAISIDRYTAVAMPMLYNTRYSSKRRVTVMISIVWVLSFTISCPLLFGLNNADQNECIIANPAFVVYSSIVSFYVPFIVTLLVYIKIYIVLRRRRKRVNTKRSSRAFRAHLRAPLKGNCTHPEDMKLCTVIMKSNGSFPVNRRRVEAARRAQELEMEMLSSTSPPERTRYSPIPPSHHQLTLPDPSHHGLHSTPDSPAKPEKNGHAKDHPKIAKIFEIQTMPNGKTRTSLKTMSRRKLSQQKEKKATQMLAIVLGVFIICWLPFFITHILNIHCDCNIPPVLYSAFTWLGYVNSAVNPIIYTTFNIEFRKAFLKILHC
Cell membranes: Jump-In HEK cell membranes expressing human recombinant dopamine D2 receptor (2 μg/well)
(§2) Non-specific ligand: (final concentration) 10 μM Butaclamol [(+)-Butaclamol Hydrochloride, D033, Sigma]
(§3) SPA beads solution: SPA beads [WGA PVT SPA Scintillation Beads, RPNQ0001 (500 mg), RPNQ0060 (2 g), PerkinElmer] (0.2 mg/well)
(§4) Incubation time and temperature: 120 min at 25° C.
(§5) Butaclamol or the compounds of the present invention were weighed and DMSO was added to make a 10 mM solution. This solution was diluted to each concentration.
(§6) SPA beads were weighed and stirred in water to make a 50 mg/mL solution. Using this solution, a mixture with the cell membranes was prepared.
Jump-In HEK Cell membranes (final reaction amount: 2 μg protein/well), the SPA beads solution (final reaction amount: 0.2 mg/well) and the buffer solution were mixed, and the mixed solution was left still for 1 hour or more at 4° C. Then, 50 μL of the mixture was added to each well of the plate. […] Non-specific binding was calculated based on the radioactivity of [^3H]-Methylspiperone in the presence of 10 μM non-labeled Butaclamol. The total binding was calculated using the radioactivity of [^3H]-Methylspiperone in the absence of the compounds of the present invention (Vehicle). The Ki values were calculated from dose-response curves.
(§7) Binding activities of the compounds of the present invention were calculated from the following Binding Inhibition Rate (%): Inhibition Rate (%)=[1−(c−a)/(b−a)]×100 • a: Average cpm of non-specific binding • b: Average cpm of total binding • c: Cpm in the presence of each test compound

Test [2] addresses human recombinant dopamine D3 receptor (Homo sapiens (Human), UniProt P35462). Nature of the test: Test of binding inhibition for dopamine D3 receptor ([3H]-Methylspiperone SPA). Particulars: Jump-In HEK cell membranes, 2 nM [3H]-Methylspiperone, 120 min at 25° C.; read-out: hD3_Ki. The procedure:
as §1
Cell membranes: Jump-In HEK cell membranes expressing human recombinant dopamine D3 receptor (4 μg/well)
as §2, §3, §4, §5
[^3H]-Methylspiperone was weighed and the buffer solution was added to make a 6 nM solution.
as §6
Jump-In HEK Cell membranes (final reaction amount: 4 μg protein/well), the SPA beads solution (final reaction amount: 0.2 mg/well) and the buffer solution were mixed and the mixed solution was left still for 1 hour or more at 4° C. Then, 50 μL of the mixture was added to each well of the plate. In addition, 25 μL of 6 nM [^3H]-Methylspiperone (final concentration: 2 nM) was added to each well. […] Non-specific binding was calculated based on the radioactivity of [^3H]-Methylspiperone in the presence of 10 μM non-labeled Butaclamol. The total binding was calculated using the radioactivity of [H]-Methylspiperone in the absence of the compounds of the present invention (vehicle). The Ki values were calculated from dose-response curves.
as §7

human recombinant dopamine D3 receptor, sequence (P35462 whole entry): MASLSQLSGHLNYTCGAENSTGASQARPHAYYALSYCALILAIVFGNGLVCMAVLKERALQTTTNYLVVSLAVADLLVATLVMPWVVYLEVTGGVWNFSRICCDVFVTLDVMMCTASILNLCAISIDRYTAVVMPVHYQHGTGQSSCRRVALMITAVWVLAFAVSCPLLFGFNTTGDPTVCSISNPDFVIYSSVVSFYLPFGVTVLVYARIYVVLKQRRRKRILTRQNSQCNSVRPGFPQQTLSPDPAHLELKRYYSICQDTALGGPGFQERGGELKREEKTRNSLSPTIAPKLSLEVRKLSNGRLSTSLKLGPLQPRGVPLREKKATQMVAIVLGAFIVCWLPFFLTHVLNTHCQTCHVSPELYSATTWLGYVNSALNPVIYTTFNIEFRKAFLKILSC

As for `CC(Oc1ccc2c(n1)CCN(CC[C@H]1CC[C@H](NC(=O)c3cccc4nn(C)cc34)CC1)CC2)C(F)F` (single isomer, unassigned) [Example I-123], the Ki in test [1] was determined as 200 nM; in test [2], 0.034 nM.

With `CC(Oc1ccc2c(n1)CCN(CC[C@H]1CC[C@H](NC(=O)c3cccc4nn(C)cc34)CC1)CC2)C(F)F` (single isomer, unassigned) [Example I-124], the Ki in test [1] worked out at 180 nM; in test [2], 0.072 nM.

For the molecule `Cc1ncc(CC(=O)NC2CC3CCC(C2)N3CCN2CCc3sc(OCC(F)(F)F)nc3C2)s1` (single isomer, unassigned) [Example I-134], the Ki in test [1] came out at 300 nM; in test [2], 0.17 nM.

On to `Cn1cc2ccc(C(=O)N[C@H]3CC[C@H](CCN4CCc5nc(OCC(C)(F)F)sc5CC4)CC3)cc2n1` [Example I-050], for which the Ki in test [1] was greater than 1800 nM; in test [2], 0.16 nM. For `CC(F)(F)COc1nc2c(s1)CCN(CC[C@H]1CC[C@H](NC(=O)c3cnn4ccccc34)CC1)CC2` [Example I-051] the same measures were 1100 nM and 0.43 nM. With `Cc1cc(CC(=O)N[C@H]2CC[C@H](CCN3CCc4nc(OCC(C)(F)F)sc4CC3)CC2)on1` [Example I-052], the figures for the Ki in test [1] and in test [2] were 1700 nM and 0.083 nM, respectively.

With `Cc1cc(OCC(=O)N[C@H]2CC[C@H](CCN3CCc4nc(OCC(C)(F)F)sc4CC3)CC2)no1` [Example I-053], the Ki in test [1] was determined as 630 nM; in test [2], 0.2 nM. For the molecule `Cn1nnc2cccc(C(=O)N[C@H]3CC[C@H](CCN4CCc5nc(OCC(C)(F)F)sc5CC4)CC3)c21` [Example I-054], the Ki is 270 nM in test [1] and 0.13 nM in test [2].

Take `Cn1ccc2c(C(=O)N[C@H]3CC[C@H](CCN4CCc5nc(OCC(C)(F)F)sc5CC4)CC3)cccc2c1=O` [Example I-055]: the Ki was greater than 1800 nM in test [1] and 0.19 nM in test [2].

Regarding `Cn1cc2c(C(=O)N[C@H]3CC[C@H](CCN4CCc5ccc(OC6CCC(F)(F)C6)nc5CC4)CC3)cccc2n1` (some centres unmarked) [Example I-057], the Ki in test [1] turned out to be 770 nM; in test [2], 0.18 nM. Consider `Cc1cc2c(C(=O)N[C@H]3CC[C@](F)(CCN4CCc5nc(OCC(F)F)sc5CC4)CC3)cccn2n1` [Example I-058], for which the Ki in test [1] was greater than 1700 nM; in test [2], 0.47 nM. For `Cc1ncc(/C=C/C(=O)N[C@H]2CC[C@](F)(CCN3CCc4nc(OCC(F)F)sc4CC3)CC2)cn1` [Example I-061] the same measures were greater than 1800 nM and 0.65 nM. For the molecule `CC(C)Oc1ccc2c(n1)CCN(CC[C@H]1CC[C@H](NC(=O)c3cnn4ccccc34)CC1)CC2` [Example I-062], the Ki in test [1] worked out at 1100 nM; in test [2], 1 nM. For `CC(C)Oc1ccc2c(n1)CCN(CC[C@H]1CC[C@H](NC(=O)c3cccc4c(=O)n(C)ccc34)CC1)CC2` [Example I-063] the same measures were 1700 nM and 0.62 nM. The like results for `Cc1ncc(CC(=O)N[C@H]2CC[C@H](CCN3CCc4nc(OCC(C)(F)F)sc4CC3)OC2)s1` [Example I-064] were, in that order, 950 nM and 0.3 nM. For `Cc1c(F)cccc1C(=O)N[C@H]1CC[C@H](CCN2CCc3nc(OCC(C)(F)F)sc3CC2)OC1` [Example I-065] the same measures were 340 nM and 0.26 nM. For the molecule `Cn1ncc2ccc(C(=O)N[C@H]3CC[C@H](CCN4CCc5nc(OCC(C)(F)F)sc5CC4)OC3)cc21` [Example I-067], the Ki in test [1] stood at 370 nM; in test [2], 0.16 nM.

For the molecule `Cc1ncc(OCC(=O)N[C@H]2CC[C@H](CCN3CCc4nc(OCC(C)(F)F)sc4CC3)OC2)cn1` [Example I-068], the Ki was found to be 870 nM in test [1] and 0.47 nM in test [2]. For `Cc1nc(CC(=O)N[C@H]2CC[C@H](CCN3CCc4sc(C5CC(F)(F)C5)nc4C3)CC2)no1` [Example I-070] the same measures were 780 nM and 0.17 nM.

As for `CN1Cc2c(C(=O)N[C@H]3CC[C@](F)(CCN4CCc5nc(OCC(F)F)sc5CC4)CC3)cccc2C1=O` [Example I-072], the Ki in test [1] is greater than 1700 nM; in test [2], 0.13 nM.

Turning to `Cc1nc(CC(=O)N[C@H]2CC[C@](F)(CCN3CCc4ccc(OCC(C)(F)F)nc4CC3)CC2)no1` [Example I-078], the Ki in test [1] was greater than 1800 nM; in test [2], 0.13 nM. The like results for `Cc1cc(OCC(=O)N[C@H]2CC[C@](F)(CCN3CCc4ccc(OCC(C)(F)F)nc4CC3)CC2)no1` [Example I-079] were, in that order, greater than 1800 nM and 0.07 nM. For `Cc1cc(OCC(=O)N[C@H]2CC[C@](F)(CCN3CCc4ccc(OCC(F)F)nc4CC3)CC2)no1` [Example I-084] the same measures were greater than 2200 nM and 0.25 nM. The like results for `COc1cc(CC(=O)N[C@H]2CC[C@](F)(CCN3CCc4ccc(OCC(F)F)nc4CC3)CC2)on1` [Example I-085] were, in that order, greater than 2200 nM and 0.044 nM.

On to `Cc1cnc(CC(=O)N[C@H]2CC[C@](F)(CCN3CCc4ccc(OCC(F)F)nc4CC3)CC2)o1` [Example I-086], for which the Ki was greater than 2200 nM in test [1] and 0.52 nM in test [2]. As for `Cn1cc2c(C(=O)N[C@H]3CC[C@H](CCN4CCc5ccc(OC6CCC6)nc5CC4)CC3)cccc2n1` [Example I-089], the Ki in test [1] was greater than 2200 nM; in test [2], 0.22 nM. In the case of `Cc1cnc(CC(=O)N[C@H]2CC[C@H](CCN3CCc4ccc(OC5CCC5)nc4CC3)CC2)o1` [Example I-090], the figures for the Ki in test [1] and in test [2] were greater than 2400 nM and 0.65 nM, respectively. For the molecule `Cc1ncccc1C(=O)N[C@H]1CC[C@H](CCN2CCc3ccc(OCC(F)F)nc3CC2)CC1` [Example I-091], the Ki in test [1] was 940 nM; in test [2] it was 0.28 nM.

In the case of `CCn1c(C(=O)N[C@H]2CC[C@H](CCN3CCc4ccc(OCC(F)F)nc4CC3)CC2)cccc1=O` [Example I-092], the results for the Ki in test [1] and in test [2] were 310 nM and 0.16 nM, respectively.

For `Cc1nnc(CC(=O)N[C@H]2CC[C@H](CCN3CCc4ccc(OCC(F)F)nc4CC3)CC2)o1` [Example I-093], the Ki is 1200 nM in test [1] and 0.17 nM in test [2]. For `Cc1cc(CC(=O)N[C@H]2CC[C@H](CCN3CCc4ccc(OCC(F)F)nc4CC3)CC2)no1` [Example I-094] the same measures were 910 nM and 0.3 nM. In the case of `Cn1cc(CC(=O)N[C@H]2CC[C@H](CCN3CCc4ccc(OCC(F)F)nc4CC3)CC2)cn1` [Example I-095], the Ki in test [1] turned out to be 1400 nM; in test [2], 0.18 nM. Consider `Cn1cc(OCC(=O)N[C@H]2CC[C@H](CCN3CCc4ccc(OCC(F)F)nc4CC3)CC2)cn1` [Example I-096], for which the Ki in test [1] stood at 570 nM; in test [2], 0.18 nM.

For `Cc1ncc(OCC(=O)N[C@H]2CC[C@H](CCN3CCc4ccc(OCC(F)F)nc4CC3)CC2)cn1` [Example I-097], the Ki was 900 nM in test [1] and 0.11 nM in test [2].

For `Cc1ncc(/C=C/C(=O)N[C@H]2CC[C@H](CCN3CCc4ccc(OCC(F)F)nc4CC3)CC2)cn1` [Example I-098], the results for the Ki in test [1] and in test [2] were 350 nM and 0.17 nM, respectively.

In the case of `Cn1ncc(CC(=O)N[C@H]2CC[C@](F)(CCN3CCc4ccc(OC5CCC5)nc4CC3)CC2)n1` [Example I-106], the Ki in test [1] is greater than 2300 nM; in test [2], 0.54 nM.

For `Cc1ncc(CC(=O)N[C@H]2CC[C@H](CCN3CCc4nc(OCC(F)(F)F)sc4CC3)CC2)cn1` [Example I-110], the Ki was determined as 460 nM in test [1] and 0.17 nM in test [2]. For `Cc1nnc(CC(=O)N[C@H]2CC[C@](F)(CCN3CCc4nc(OCCC(F)(F)F)sc4CC3)CC2)s1` [Example I-115] the same measures were greater than 2200 nM and 0.63 nM. The like results for `Cc1ncc(/C=C/C(=O)N[C@H]2CC[C@](F)(CCN3CCc4nc(OCCC(F)(F)F)sc4CC3)CC2)cn1` [Example I-116] were, in that order, greater than 2200 nM and 1 nM. `Cc1cnc(CC(=O)N[C@H]2CC[C@](F)(CCN3CCc4nc(OCCC(F)(F)F)sc4CC3)CC2)o1` [Example I-117]: the Ki in test [1] was greater than 2200 nM; in test [2] it was 0.55 nM. The like results for `Cc1cnc(OCC(=O)N[C@H]2CC[C@](F)(CCN3CCc4nc(OCCC(F)(F)F)sc4CC3)CC2)cn1` [Example I-118] were, in that order, greater than 2200 nM and 0.74 nM. Regarding `Cn1cc(OCC(=O)N[C@H]2CC[C@H](CCN3CCc4ccc(CCC(F)(F)F)nc4CC3)CC2)cn1` [I′-6], the Ki in test [2] amounted to 0.33 nM.
